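Values below derive from 48-hour exposures of cells grown in 96-well plates, with endpoints linearly interpolated between the two concentrations bracketing the appropriate inhibition level. GI50: concentration for 50% inhibition of growth.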 Activity calls are given as the source filed them. Cut-off read from the data, not from the text of the source: active = GI50 up to about 1.1 µM and inactive = higher.
Experiments:
Assay in all cases: inhibition of tumour cell growth, NCI panel, 48 h
OVCAR-3 = system: OVCAR-3
UACC-257 = system: UACC-257
NCI-H23 = system: NCI-H23
HCT-116 = system: HCT-116
MOLT-4 = system: MOLT-4
NCI-H226 = system: NCI-H226
HT-29 = system: HT-29
RXF 393 = system: RXF 393
HCC 2998 = system: HCC 2998
EKVX = system: EKVX
U-251 = system: U-251
SW-620 = system: SW-620
RPMI-8226 = system: RPMI-8226
M14 = system: M14
SK-MEL-2 = system: SK-MEL-2
Malme-3M = system: Malme-3M
HCT-15 = system: HCT-15

SMILES	GI50 (OVCAR-3)	GI50 (UACC-257)	GI50 (NCI-H23)	GI50 (HCT-116)	GI50 (MOLT-4)	GI50 (NCI-H226)	GI50 (HT-29)	GI50 (RXF 393)	GI50 (HCC 2998)	GI50 (EKVX)	GI50 (U-251)	GI50 (SW-620)	GI50 (RPMI-8226)	GI50 (M14)	GI50 (SK-MEL-2)	GI50 (Malme-3M)	GI50 (HCT-15) [µM]
CC(C)C12C=CC(C)(CC1)n1c(=O)c3cc4ccccc4cc3c(=O)n12 (configuration not stated)	46.2 µM (inactive)	63.1 µM (inactive)	52 µM (inactive)	47.2 µM (inactive)	30.8 µM (inactive)	40.6 µM (inactive)	45.1 µM (inactive)	> 100 µM (inactive)	33.7 µM (inactive)	43.5 µM (inactive)	76 µM (inactive)	60.1 µM (inactive)	36.3 µM (inactive)	76.4 µM (inactive)	48.3 µM (inactive)	42.9 µM (inactive)	33.3
Nc1nc(N)c2ncn(CCCC(c3ccccc3)P(=O)(O)O)c2n1 (configuration not stated)	> 100 µM (inactive)	> 100 µM (inactive)	19.2 µM (inactive)	> 100 µM (inactive)			> 100 µM (inactive)		> 100 µM (inactive)		> 100 µM (inactive)	> 100 µM (inactive)	> 100 µM (inactive)	> 100 µM (inactive)	> 100 µM (inactive)	> 100 µM (inactive)	> 100
Oc1cc(-c2ccc[nH]2)nc2cc3c(cc12)OCO3		64.7 µM (inactive)			39.7 µM (inactive)		29.8 µM (inactive)		28.8 µM (inactive)	55.3 µM (inactive)	65.9 µM (inactive)	21.6 µM (inactive)	43 µM (inactive)	32.2 µM (inactive)	48.3 µM (inactive)	17.1 µM (inactive)	23.2
Nc1ncc(CN2CCCC2)c(-c2ccccc2O)n1	> 750 µM (inactive)	> 750 µM (inactive)	> 750 µM (inactive)	> 750 µM (inactive)	> 750 µM (inactive)	> 750 µM (inactive)	> 750 µM (inactive)	> 750 µM (inactive)	> 750 µM (inactive)	> 100 µM (inactive)	> 750 µM (inactive)	> 750 µM (inactive)	> 750 µM (inactive)	> 750 µM (inactive)	> 100 µM (inactive)	> 750 µM (inactive)	> 750
O=[N+]([O-])c1nccn1COCCBr	> 100 µM (inactive)	> 100 µM (inactive)	> 100 µM (inactive)	> 100 µM (inactive)	> 100 µM (inactive)	> 100 µM (inactive)	> 100 µM (inactive)			> 100 µM (inactive)	> 100 µM (inactive)	> 100 µM (inactive)	> 100 µM (inactive)	> 100 µM (inactive)	> 100 µM (inactive)	> 100 µM (inactive)	> 100
CC(C)c1ccccc1NC(=O)/C(Cl)=C1/Sc2ccccc2NC1=O			19.6 µM (inactive)	28.8 µM (inactive)	24.8 µM (inactive)	26.9 µM (inactive)		13.3 µM (inactive)	23.6 µM (inactive)	49.1 µM (inactive)	35 µM (inactive)	25.2 µM (inactive)	20.9 µM (inactive)	22.4 µM (inactive)	15.7 µM (inactive)	20 µM (inactive)	22.8
CCOC(=O)C1=C(C)N(NC(N)=O)C2(N)N(NC(N)=O)C(C)=C(C(=O)OCC)C12C(=O)OCC (configuration not stated)	> 100 µM (inactive)	> 100 µM (inactive)		> 100 µM (inactive)	> 100 µM (inactive)	> 100 µM (inactive)	> 100 µM (inactive)	> 100 µM (inactive)	> 100 µM (inactive)	> 100 µM (inactive)	> 100 µM (inactive)	> 100 µM (inactive)	> 100 µM (inactive)	> 100 µM (inactive)	> 100 µM (inactive)	> 100 µM (inactive)	> 100
CCOC(=O)C1(Cc2ccccc2)CCCCCN1 (configuration not stated)	> 100 µM (inactive)		> 100 µM (inactive)				> 100 µM (inactive)	> 100 µM (inactive)	> 100 µM (inactive)	> 100 µM (inactive)	> 100 µM (inactive)	> 100 µM (inactive)		> 100 µM (inactive)		50.1 µM (inactive)	> 100
O=C(Nc1nnn[nH]1)c1nc(O)cc(-c2ccccc2)n1	> 100 µM (inactive)	> 100 µM (inactive)	> 100 µM (inactive)	> 100 µM (inactive)	> 100 µM (inactive)	> 100 µM (inactive)	> 100 µM (inactive)		> 100 µM (inactive)	> 100 µM (inactive)	> 100 µM (inactive)	> 100 µM (inactive)	> 100 µM (inactive)	> 100 µM (inactive)	> 100 µM (inactive)	> 100 µM (inactive)	
COc1ccc(/C=C2\C(=O)N(C(=O)c3ccc(NC(C)=O)cc3)N=C2C)cc1OC	> 100 µM (inactive)	> 100 µM (inactive)	> 100 µM (inactive)	> 100 µM (inactive)	> 100 µM (inactive)	> 100 µM (inactive)	> 100 µM (inactive)		> 100 µM (inactive)	> 100 µM (inactive)		> 100 µM (inactive)	> 100 µM (inactive)	> 100 µM (inactive)	> 100 µM (inactive)	> 100 µM (inactive)	> 100
C[C@@H]1[C@H](c2ccccc2)O[B-]2(c3ccc(Br)cc3)OC(=O)C[N+]12C (some centres not stated)		> 100 µM (inactive)	> 100 µM (inactive)	> 100 µM (inactive)	86.5 µM (inactive)		> 100 µM (inactive)	26.5 µM (inactive)	> 100 µM (inactive)	> 100 µM (inactive)	> 100 µM (inactive)	> 100 µM (inactive)	> 100 µM (inactive)	> 100 µM (inactive)	> 100 µM (inactive)	> 100 µM (inactive)	> 100
CCCCCCCCCCCCCC(=O)OCC1OC(=O)CC1O (configuration not stated)	> 100 µM (inactive)	> 100 µM (inactive)	> 100 µM (inactive)	44.2 µM (inactive)	35.2 µM (inactive)		94.4 µM (inactive)	> 100 µM (inactive)	> 100 µM (inactive)	> 100 µM (inactive)	> 100 µM (inactive)	> 100 µM (inactive)	49.8 µM (inactive)	21.9 µM (inactive)	> 100 µM (inactive)	> 100 µM (inactive)	25.4
CC1(CO)OC1COCc1ccccc1 (configuration not stated)	> 100 µM (inactive)	> 100 µM (inactive)	> 100 µM (inactive)		> 100 µM (inactive)	> 100 µM (inactive)	> 100 µM (inactive)	> 100 µM (inactive)		> 100 µM (inactive)	> 100 µM (inactive)	> 100 µM (inactive)	> 100 µM (inactive)	> 100 µM (inactive)	> 100 µM (inactive)	> 100 µM (inactive)	> 100
O=c1[nH]cc(OCC(F)(F)F)c(=O)[nH]1	> 100 µM (inactive)	> 100 µM (inactive)	> 100 µM (inactive)	> 100 µM (inactive)	> 100 µM (inactive)		> 100 µM (inactive)	> 100 µM (inactive)	> 100 µM (inactive)	> 100 µM (inactive)	> 100 µM (inactive)	> 100 µM (inactive)	> 100 µM (inactive)	> 100 µM (inactive)	> 100 µM (inactive)	> 100 µM (inactive)	> 100
